Results as given in ChEMBL document CHEMBL1697781, “Assessment of the health effects of chemicals in humans: II. Construction of an adverse effects database for QSAR modeling” (Curr Drug Discov Technol, 2004).

Key:
Conditions in all cases: human
Hepatotoxicity [1] = assay: FDA HLAED, liver enzyme composite activity
Hepatotoxicity [2] = assay: FDA HLAED, alkaline phosphatase increase
Hepatotoxicity [3] = assay: FDA HLAED, serum glutamic oxaloacetic transaminase (SGOT) increase
Hepatotoxicity [4] = assay: FDA HLAED, serum glutamic pyruvic transaminase (SGPT) increase
Hepatotoxicity [5] = assay: FDA HLAED, lactate dehydrogenase (LDH) increase
Hepatotoxicity [6] = assay: FDA HLAED, gamma-glutamyl transferase (GGT) increase
For GGT Increase - Index Value in this document: reference of the scale not given here.
For LDH Increase - Index Value in this document: reference of the scale not given here.

## C=CC[N+]1([C@H]2C[C@H]3[C@@H]4CC[C@H]5C[C@H](O)[C@@H](N6CCOCC6)C[C@]5(C)[C@H]4CC[C@]3(C)[C@H]2OC(C)=O)CCCC1.[Br-] [ROCURONIUM BROMIDE]
Hepatotoxicity [1]
  Composite Activity - Active: 0
  Composite Activity - Marginal: 0
  Composite Activity - Score: Inactive
Hepatotoxicity [2]
  Alkaline Phosphatase Increase - Activity Score: Inactive
  Alkaline Phosphatase Increase - Index Value: 0
  Alkaline Phosphatase Increase - Number of Reports: < 4
Hepatotoxicity [3]
  SGOT Increase - Activity Score: Inactive
  SGOT Increase - Index Value: 0
  SGOT Increase - Number of Reports: < 4
Hepatotoxicity [4]
  SGPT Increase - Activity Score: Inactive
  SGPT Increase - Index Value: 0
  SGPT Increase - Number of Reports: < 4
Hepatotoxicity [5]
  LDH Increase - Activity Score: Inactive
  LDH Increase - Index Value: 0
  LDH Increase - Number of Reports: < 4
Hepatotoxicity [6]
  GGT Increase - Activity Score: Inactive
  GGT Increase - Index Value: 0
  GGT Increase - Number of Reports: < 4

## COc1ccc2cc(CCC(C)=O)ccc2c1 [NABUMETONE]
Hepatotoxicity [1]
  Composite Activity - Active: 0
  Composite Activity - Marginal: 0
  Composite Activity - Score: Inactive
Hepatotoxicity [2]
  Alkaline Phosphatase Increase - Activity Score: Inactive
  Alkaline Phosphatase Increase - Index Value: 0.8
  Alkaline Phosphatase Increase - Number of Reports: >= 4
Hepatotoxicity [3]
  SGOT Increase - Activity Score: Inactive
  SGOT Increase - Index Value: 0.6
  SGOT Increase - Number of Reports: >= 4
Hepatotoxicity [4]
  SGPT Increase - Activity Score: Inactive
  SGPT Increase - Index Value: 0.6
  SGPT Increase - Number of Reports: >= 4
Hepatotoxicity [5]
  LDH Increase - Activity Score: Inactive
  LDH Increase - Index Value: 0.3
  LDH Increase - Number of Reports: >= 4
Hepatotoxicity [6]
  GGT Increase - Activity Score: Inactive
  GGT Increase - Index Value: 0.5
  GGT Increase - Number of Reports: >= 4

## CC1=C(/C=C/C(C)=C/C=C/C(C)=C/C(=O)O)C(C)(C)CCC1 [TRETINOIN]
Hepatotoxicity [1]
  Composite Activity - Active: 0
  Composite Activity - Marginal: 0
  Composite Activity - Score: Inactive
Hepatotoxicity [2]
  Alkaline Phosphatase Increase - Activity Score: Inactive
  Alkaline Phosphatase Increase - Index Value: 1
  Alkaline Phosphatase Increase - Number of Reports: < 4
Hepatotoxicity [3]
  SGOT Increase - Activity Score: Inactive
  SGOT Increase - Index Value: 0
  SGOT Increase - Number of Reports: < 4
Hepatotoxicity [4]
  SGPT Increase - Activity Score: Inactive
  SGPT Increase - Index Value: 0
  SGPT Increase - Number of Reports: < 4
Hepatotoxicity [5]
  LDH Increase - Activity Score: Inactive
  LDH Increase - Index Value: 1
  LDH Increase - Number of Reports: < 4
Hepatotoxicity [6]
  GGT Increase - Activity Score: Inactive
  GGT Increase - Index Value: 1
  GGT Increase - Number of Reports: < 4

## COc1ccc(-c2ccc3cc(C(=O)O)ccc3c2)cc1C12CC3CC(CC(C3)C1)C2
Hepatotoxicity [1]
  Composite Activity - Active: 0
  Composite Activity - Marginal: 0
  Composite Activity - Score: Inactive
Hepatotoxicity [2]
  Alkaline Phosphatase Increase - Activity Score: Inactive
  Alkaline Phosphatase Increase - Index Value: 0
  Alkaline Phosphatase Increase - Number of Reports: < 4
Hepatotoxicity [3]
  SGOT Increase - Activity Score: Inactive
  SGOT Increase - Index Value: 0
  SGOT Increase - Number of Reports: < 4
Hepatotoxicity [4]
  SGPT Increase - Activity Score: Inactive
  SGPT Increase - Index Value: 0
  SGPT Increase - Number of Reports: < 4
Hepatotoxicity [5]
  LDH Increase - Activity Score: Inactive
  LDH Increase - Index Value: 0
  LDH Increase - Number of Reports: < 4
Hepatotoxicity [6]
  GGT Increase - Activity Score: Inactive
  GGT Increase - Index Value: 0
  GGT Increase - Number of Reports: < 4

## N=C(N)NCC1COC2(CCCCC2)O1 (stereo unspecified)
Hepatotoxicity [1]
  Composite Activity - Active: 0
  Composite Activity - Marginal: 0
  Composite Activity - Score: Inactive
Hepatotoxicity [2]
  Alkaline Phosphatase Increase - Activity Score: Inactive
  Alkaline Phosphatase Increase - Index Value: 0
  Alkaline Phosphatase Increase - Number of Reports: < 4
Hepatotoxicity [3]
  SGOT Increase - Activity Score: Inactive
  SGOT Increase - Index Value: 0
  SGOT Increase - Number of Reports: < 4
Hepatotoxicity [4]
  SGPT Increase - Activity Score: Inactive
  SGPT Increase - Index Value: 0
  SGPT Increase - Number of Reports: < 4
Hepatotoxicity [5]
  LDH Increase - Activity Score: Inactive
  LDH Increase - Index Value: 0
  LDH Increase - Number of Reports: < 4
Hepatotoxicity [6]
  GGT Increase - Activity Score: Inactive
  GGT Increase - Index Value: 0
  GGT Increase - Number of Reports: < 4

## CCOC(=O)C1=C(COCCN)NC(C)=C(C(=O)OC)C1c1ccccc1Cl (stereo unspecified) [AMLODIPINE]
Hepatotoxicity [1]
  Composite Activity - Active: 0
  Composite Activity - Marginal: 0
  Composite Activity - Score: Inactive
Hepatotoxicity [2]
  Alkaline Phosphatase Increase - Activity Score: Inactive
  Alkaline Phosphatase Increase - Index Value: 1
  Alkaline Phosphatase Increase - Number of Reports: >= 4
Hepatotoxicity [3]
  SGOT Increase - Activity Score: Inactive
  SGOT Increase - Index Value: 1.3
  SGOT Increase - Number of Reports: >= 4
Hepatotoxicity [4]
  SGPT Increase - Activity Score: Inactive
  SGPT Increase - Index Value: 1.2
  SGPT Increase - Number of Reports: >= 4
Hepatotoxicity [5]
  LDH Increase - Activity Score: Inactive
  LDH Increase - Index Value: 0.7
  LDH Increase - Number of Reports: >= 4
Hepatotoxicity [6]
  GGT Increase - Activity Score: Inactive
  GGT Increase - Index Value: 0.8
  GGT Increase - Number of Reports: >= 4

## CC(C)(C)NC[C@H](O)COc1cccc2c1CCCC2=O [LEVOBUNOLOL]
Hepatotoxicity [1]
  Composite Activity - Active: 0
  Composite Activity - Marginal: 0
  Composite Activity - Score: Inactive
Hepatotoxicity [2]
  Alkaline Phosphatase Increase - Activity Score: Inactive
  Alkaline Phosphatase Increase - Index Value: 0
  Alkaline Phosphatase Increase - Number of Reports: < 4
Hepatotoxicity [3]
  SGOT Increase - Activity Score: Inactive
  SGOT Increase - Index Value: 0
  SGOT Increase - Number of Reports: < 4
Hepatotoxicity [4]
  SGPT Increase - Activity Score: Inactive
  SGPT Increase - Index Value: 0
  SGPT Increase - Number of Reports: < 4
Hepatotoxicity [5]
  LDH Increase - Activity Score: Inactive
  LDH Increase - Index Value: 0
  LDH Increase - Number of Reports: < 4
Hepatotoxicity [6]
  GGT Increase - Activity Score: Inactive
  GGT Increase - Index Value: 0
  GGT Increase - Number of Reports: < 4

## O=C(NCC(O)CO)c1c(I)c(C(=O)NCC(O)CO)c(I)c(N(CCO)C(=O)CO)c1I (stereo unspecified) [IOVERSOL]
Hepatotoxicity [1]
  Composite Activity - Active: 0
  Composite Activity - Marginal: 0
  Composite Activity - Score: Inactive
Hepatotoxicity [2]
  Alkaline Phosphatase Increase - Activity Score: Inactive
  Alkaline Phosphatase Increase - Index Value: 0
  Alkaline Phosphatase Increase - Number of Reports: < 4
Hepatotoxicity [3]
  SGOT Increase - Activity Score: Inactive
  SGOT Increase - Index Value: 0
  SGOT Increase - Number of Reports: < 4
Hepatotoxicity [4]
  SGPT Increase - Activity Score: Inactive
  SGPT Increase - Index Value: 0
  SGPT Increase - Number of Reports: < 4
Hepatotoxicity [5]
  LDH Increase - Activity Score: Inactive
  LDH Increase - Index Value: 400
  LDH Increase - Number of Reports: < 4
Hepatotoxicity [6]
  GGT Increase - Activity Score: Inactive
  GGT Increase - Index Value: 0
  GGT Increase - Number of Reports: < 4

## CCCCCCCCCCC(=O)O[C@H]1CC[C@H]2[C@@H]3CCc4cc(O)ccc4[C@H]3CC[C@]12C [ESTRADIOL UNDECYLATE]
Hepatotoxicity [1]
  Composite Activity - Active: 0
  Composite Activity - Marginal: 0
  Composite Activity - Score: Inactive
Hepatotoxicity [2]
  Alkaline Phosphatase Increase - Activity Score: Inactive
  Alkaline Phosphatase Increase - Index Value: 1.5
  Alkaline Phosphatase Increase - Number of Reports: >= 4
Hepatotoxicity [3]
  SGOT Increase - Activity Score: Inactive
  SGOT Increase - Index Value: 2.8
  SGOT Increase - Number of Reports: >= 4
Hepatotoxicity [4]
  SGPT Increase - Activity Score: Inactive
  SGPT Increase - Index Value: 2.1
  SGPT Increase - Number of Reports: >= 4
Hepatotoxicity [5]
  LDH Increase - Activity Score: Inactive
  LDH Increase - Index Value: 1.2
  LDH Increase - Number of Reports: >= 4
Hepatotoxicity [6]
  GGT Increase - Activity Score: Inactive
  GGT Increase - Index Value: 0.3
  GGT Increase - Number of Reports: < 4

## O=c1[nH]c2ccccc2n1C1CCN(CCCC(c2ccc(F)cc2)c2ccc(F)cc2)CC1 [PIMOZIDE]
Hepatotoxicity [1]
  Composite Activity - Active: 0
  Composite Activity - Marginal: 0
  Composite Activity - Score: Inactive
Hepatotoxicity [2]
  Alkaline Phosphatase Increase - Activity Score: Inactive
  Alkaline Phosphatase Increase - Index Value: 17.6
  Alkaline Phosphatase Increase - Number of Reports: < 4
Hepatotoxicity [3]
  SGOT Increase - Activity Score: Inactive
  SGOT Increase - Index Value: 0
  SGOT Increase - Number of Reports: < 4
Hepatotoxicity [4]
  SGPT Increase - Activity Score: Inactive
  SGPT Increase - Index Value: 17.6
  SGPT Increase - Number of Reports: < 4
Hepatotoxicity [5]
  LDH Increase - Activity Score: Inactive
  LDH Increase - Index Value: 0
  LDH Increase - Number of Reports: < 4
Hepatotoxicity [6]
  GGT Increase - Activity Score: Inactive
  GGT Increase - Index Value: 17.6
  GGT Increase - Number of Reports: < 4

## CO[C@]12CC[C@@]3(C[C@@H]1[C@](C)(O)C(C)(C)C)[C@H]1Cc4ccc(O)c5c4[C@@]3(CCN1CC1CC1)[C@H]2O5 [BUPRENORPHINE]
Hepatotoxicity [1]
  Composite Activity - Active: 0
  Composite Activity - Marginal: 0
  Composite Activity - Score: Inactive
Hepatotoxicity [2]
  Alkaline Phosphatase Increase - Activity Score: Inactive
  Alkaline Phosphatase Increase - Index Value: 0
  Alkaline Phosphatase Increase - Number of Reports: < 4
Hepatotoxicity [3]
  SGOT Increase - Activity Score: Inactive
  SGOT Increase - Index Value: 0
  SGOT Increase - Number of Reports: < 4
Hepatotoxicity [4]
  SGPT Increase - Activity Score: Inactive
  SGPT Increase - Index Value: 0
  SGPT Increase - Number of Reports: < 4
Hepatotoxicity [5]
  LDH Increase - Activity Score: Inactive
  LDH Increase - Index Value: 0
  LDH Increase - Number of Reports: < 4
Hepatotoxicity [6]
  GGT Increase - Activity Score: Inactive
  GGT Increase - Index Value: 0
  GGT Increase - Number of Reports: < 4

## COc1ccc([C@@H]2Sc3ccccc3N(CCN(C)C)C(=O)[C@@H]2OC(C)=O)cc1 [DILTIAZEM]
Hepatotoxicity [1]
  Composite Activity - Active: 0
  Composite Activity - Marginal: 0
  Composite Activity - Score: Inactive
Hepatotoxicity [2]
  Alkaline Phosphatase Increase - Activity Score: Inactive
  Alkaline Phosphatase Increase - Index Value: 0.1
  Alkaline Phosphatase Increase - Number of Reports: < 4
Hepatotoxicity [3]
  SGOT Increase - Activity Score: Inactive
  SGOT Increase - Index Value: 0.3
  SGOT Increase - Number of Reports: >= 4
Hepatotoxicity [4]
  SGPT Increase - Activity Score: Inactive
  SGPT Increase - Index Value: 0.1
  SGPT Increase - Number of Reports: < 4
Hepatotoxicity [5]
  LDH Increase - Activity Score: Inactive
  LDH Increase - Index Value: 0.1
  LDH Increase - Number of Reports: < 4
Hepatotoxicity [6]
  GGT Increase - Activity Score: Inactive
  GGT Increase - Index Value: 0
  GGT Increase - Number of Reports: < 4
